Test system: vascular-cell tube (engineered from primary human microvascular endothelial cells)

average permeability through the vascular-cell tube wall: 25 ×10⁻⁶ cm/s
Compound: O=C(O)c1ccccc1-c1c2cc(F)c(=O)cc-2oc2cc(O)c(F)cc12 [Oregon Green]

From patent US20190062684A1, “Microfluidic System for Reproducing Functional Units of Tissues and Organs In Vitro” (NORTIS, INC., priority 2012, published 2019)
